In US6331555A, “Treatment of platelet derived growth factor related disorders such as cancers” (priority 1999, dated 2001):
“And” between values parts separate entries of the source, which are not always exact repeats. Equal entries are not always repeated. Where two headings read alike, the source gives them in different places.

Experiments:
PDGFR [1] = target: T1, PDGFR (Homo sapiens, UniProt P09619); assay: PDGF-stimulated receptor phosphorylation in U1242 cells, ELISA; format: cell-based; set-up: U1242 (PDGF-β receptor); host or cells: U1242 MG glioma cells; settings: 100 ng/ml PDGF-BB; read-out: ELISA P-TYR U1242 IC50
T1 sequence (P09619 33-1106): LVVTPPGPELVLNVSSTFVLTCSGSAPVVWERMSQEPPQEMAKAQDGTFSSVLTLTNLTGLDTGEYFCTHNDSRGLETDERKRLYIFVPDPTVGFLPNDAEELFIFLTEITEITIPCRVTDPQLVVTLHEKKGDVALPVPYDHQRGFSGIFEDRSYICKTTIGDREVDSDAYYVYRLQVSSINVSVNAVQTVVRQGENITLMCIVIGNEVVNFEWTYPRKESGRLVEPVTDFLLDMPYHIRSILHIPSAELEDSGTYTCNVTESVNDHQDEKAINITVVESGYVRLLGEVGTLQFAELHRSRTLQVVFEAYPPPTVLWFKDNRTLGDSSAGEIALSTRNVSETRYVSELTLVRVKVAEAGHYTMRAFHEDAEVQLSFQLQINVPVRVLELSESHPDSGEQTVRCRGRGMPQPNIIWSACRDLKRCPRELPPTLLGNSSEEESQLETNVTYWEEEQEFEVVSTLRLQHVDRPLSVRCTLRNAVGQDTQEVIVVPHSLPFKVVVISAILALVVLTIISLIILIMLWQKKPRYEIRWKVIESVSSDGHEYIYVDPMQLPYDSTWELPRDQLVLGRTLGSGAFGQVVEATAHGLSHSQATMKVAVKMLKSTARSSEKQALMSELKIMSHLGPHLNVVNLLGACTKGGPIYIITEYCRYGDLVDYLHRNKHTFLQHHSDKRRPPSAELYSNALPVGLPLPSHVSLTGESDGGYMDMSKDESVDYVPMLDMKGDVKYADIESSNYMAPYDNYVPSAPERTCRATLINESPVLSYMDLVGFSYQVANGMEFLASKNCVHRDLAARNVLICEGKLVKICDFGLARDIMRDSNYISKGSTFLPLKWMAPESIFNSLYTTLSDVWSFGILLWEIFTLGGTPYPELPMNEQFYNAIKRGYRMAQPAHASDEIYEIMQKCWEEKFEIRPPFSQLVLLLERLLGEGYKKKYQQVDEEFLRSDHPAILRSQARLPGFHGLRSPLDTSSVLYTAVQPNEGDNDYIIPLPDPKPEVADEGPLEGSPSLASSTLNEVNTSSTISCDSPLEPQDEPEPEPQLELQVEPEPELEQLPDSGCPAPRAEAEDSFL
Method: (§1) For ELISA assays, cells were grown to 80-90% confluency in growth medium and seeded in 96-well tissue culture plates in 0.5% serum at 25,000 to 30,000 cells per well. After overnight incubation in 0.5% serum-containingmedium, cells were changed to serum-free medium and treated with test compound for 2 hr in a 5% CO2, 37° C. incubator. Cells were then stimulated with ligand for 5-10 min followed by lysis with HNTG (20 mM Hepes, 150 mM NaCl, 10% glycerol, 5 mM EDTA, 5 mM Na3 VO4 0.2% Triton X-100, and 2 mM NaPyr). […] Lysates were incubated with shaking for 1 hr at room temperature. The plates were washed with TBST four times and then incubated with polyclonol anti-phosphotyrosine antibody at room temperature for 30 min. Excess anti-phosphotyrosine antibody was removed by rinsing the plate with TBST four times. Goat anti-rabbit IgG antibody was added to the ELISA plate for 30 min at room temperature followed by rinsing with TBST four more times.
U1242 MG cells were plated in 96-well plates at a concentration of 5×10^4 cells/well in cultured media containing 0.5% FBS. The cells were incubated for 24 hours. The cells were then treated with a particular compound for 2 hours followed by the addition of 100 ng/ml PDGF-BB and incubation for 10 minutes.
Cells were lysed in 0.2 M Hepes, 0.15 M NaCl, 10% V/V glycerol, 0.04% Triton X-100, 5 mM EDTA, 5 MM Na^+ vanadate and […] Na^+ pyrophosphate. Cell lysates were then added to an ELISA plate coated with an anti-PDGF receptor antibody (Genzyme). ELISA plates were coated at […] of antibody/well in […] of PBS for 18 hours at 4° C. prior to the addition of the lysate.
The lysate was incubated in the coated plates for 1 hour and then washed four times in TBST (35 mM Tris-HCl pH 7.0, 0.15 M NaCl, 0.1% Triton X-100). Anti-phosphotyrosine antibody ([…] in PBS) was added and the mixture was incubated for 30 minutes at room temperature. The wells were then washed four times in TBST, a secondary antibody conjugated to POD (TAGO) was added to each well, and the treated wells were incubated for 30 minutes at room temperature. The wells were then washed four times in TBST, ABTS/H2 O2 solution was added to each well and the wells were incubated for two minutes. Absorbance was then measured at 410 nm.

HER2 = assay: Receptor tyrosine kinase inhibition, HER2; format: cell-based; settings: for IC50: read-out: HER2 IC50
Method: (§2) For western blotting, cells were plated in 2 mL growth medium into 6-well dishes (500,000 cells per well) and allowed to attach overnight. The medium was replaced with 2 mL MCDB 105 (UCSF Cell Culture Facility) supplemented with 1% FBS. The plates were then incubated overnight at 37° C., ambient CO2. […] After a 7 min incubation at room temperature with ligand, the plates were put on ice and washed three times with 1 mL ice-cold PBS plus 1 mM orthovanadate. Lysis was achieved by pipetting cells in 0.5 mL of buffer containing 50 mM Tris, pH 7.4, 10% glycerol, 1% NP-40, 2 mM EDTA, 1 mM sodium vanadate (Na3 VO4), 10 mM pyrophosphate, 1 mM PMSF, […]. A 300 μL aliquot of each lysate was immediately added to 100 μL 4×Laemmli sample buffer ([…] Tris pH 6.9, 20% glycerol, 7% SDS, 5 mM EDTA, 5% β-mercaptoethanol) containing phosphatase inhibitors, 2 mM Na3 VO4 and 10 mM pyrophosphate. Samples were boiled for 5 min, frozen in dry ice-ethanol, and stored at -80° C. Proteins were resolved by SDS-PAGE (Bio-Rad Miniprotean II) and transferred to nitrocellulose membrane (Schleicher & Schuell) at 120 volts for 1 hr at room temperature in buffer containing 25 mM Tris pH 8.3, 20% methanol, 0.2 M glycine, 0.1% SDS. The integrity of the protein-to-membrane transfer was determined by staining with 1% Ponceau S in 5% acetic acid for 5 min. After destaining in several distilled water rinses, the membrane was soaked overnight in blocking buffer containing 5% milk in Tris-buffered saline, 0.05% Tween 20. Phosphotyresine was detected by incubating the membrane (1 hr at room temperature) with an anti-phosphotyosine antiserum diluted in blocking buffer at 1:3000. For C6 cells, PDGF-β receptor content in the lysates was confirmed in duplicate sample lanes by western blotting using an antibody specific for PDGF-β receptor (UBI). The antibodies were visualized using ECL reagent from Amersham and by exposure to Fuji RX film.
(§3) For ELISA assays, cells were grown to 80-90% confluency in growth medium and seeded in 96-well tissue culture plates in 0.5% serum at 25,000 to 30,000 cells per well. After overnight incubation in 0.5% serum-containingmedium, cells were changed to serum-free medium and treated with test compound for 2 hr in a 5% CO2, 37° C. incubator. Cells were then stimulated with ligand for 5-10 min followed by lysis with HNTG (20 mM Hepes, 150 mM NaCl, 10% glycerol, 5 mM EDTA, 5 mM Na3 VO4 0.2% Triton X-100, and 2 mM NaPyr). Cell lysates (0.5 mg/well in PBS) were transferred to ELISA plates previously coated with receptor-specific antibody and which had been blocked with 5% milk in TBST (50 mM Tris-HCl pH 7.2, 150 mM NaCl and 0.1% Triton X-100) at room temperature for 30 min. Lysates were incubated with shaking for 1 hr at room temperature. The plates were washed with TBST four times and then incubated with polyclonol anti-phosphotyrosine antibody at room temperature for 30 min. Excess anti-phosphotyrosine antibody was removed by rinsing the plate with TBST four times. Goat anti-rabbit IgG antibody was added to the ELISA plate for 30 min at room temperature followed by rinsing with TBST four more times.
(§4) The ability of different compound to inhibit different receptor tyrosine kinases was tested.

EGFR = target: T2, EGFR (Homo sapiens, UniProt P00533); assay: Receptor tyrosine kinase inhibition, EGFR; format: cell-based; settings: for IC50: read-out: EGFR ID50
T2 construct: expressed in transfected cells; host or cells: NIH3T3 mouse fibroblasts, retroviral vector
T2 sequence (P00533 25-1210): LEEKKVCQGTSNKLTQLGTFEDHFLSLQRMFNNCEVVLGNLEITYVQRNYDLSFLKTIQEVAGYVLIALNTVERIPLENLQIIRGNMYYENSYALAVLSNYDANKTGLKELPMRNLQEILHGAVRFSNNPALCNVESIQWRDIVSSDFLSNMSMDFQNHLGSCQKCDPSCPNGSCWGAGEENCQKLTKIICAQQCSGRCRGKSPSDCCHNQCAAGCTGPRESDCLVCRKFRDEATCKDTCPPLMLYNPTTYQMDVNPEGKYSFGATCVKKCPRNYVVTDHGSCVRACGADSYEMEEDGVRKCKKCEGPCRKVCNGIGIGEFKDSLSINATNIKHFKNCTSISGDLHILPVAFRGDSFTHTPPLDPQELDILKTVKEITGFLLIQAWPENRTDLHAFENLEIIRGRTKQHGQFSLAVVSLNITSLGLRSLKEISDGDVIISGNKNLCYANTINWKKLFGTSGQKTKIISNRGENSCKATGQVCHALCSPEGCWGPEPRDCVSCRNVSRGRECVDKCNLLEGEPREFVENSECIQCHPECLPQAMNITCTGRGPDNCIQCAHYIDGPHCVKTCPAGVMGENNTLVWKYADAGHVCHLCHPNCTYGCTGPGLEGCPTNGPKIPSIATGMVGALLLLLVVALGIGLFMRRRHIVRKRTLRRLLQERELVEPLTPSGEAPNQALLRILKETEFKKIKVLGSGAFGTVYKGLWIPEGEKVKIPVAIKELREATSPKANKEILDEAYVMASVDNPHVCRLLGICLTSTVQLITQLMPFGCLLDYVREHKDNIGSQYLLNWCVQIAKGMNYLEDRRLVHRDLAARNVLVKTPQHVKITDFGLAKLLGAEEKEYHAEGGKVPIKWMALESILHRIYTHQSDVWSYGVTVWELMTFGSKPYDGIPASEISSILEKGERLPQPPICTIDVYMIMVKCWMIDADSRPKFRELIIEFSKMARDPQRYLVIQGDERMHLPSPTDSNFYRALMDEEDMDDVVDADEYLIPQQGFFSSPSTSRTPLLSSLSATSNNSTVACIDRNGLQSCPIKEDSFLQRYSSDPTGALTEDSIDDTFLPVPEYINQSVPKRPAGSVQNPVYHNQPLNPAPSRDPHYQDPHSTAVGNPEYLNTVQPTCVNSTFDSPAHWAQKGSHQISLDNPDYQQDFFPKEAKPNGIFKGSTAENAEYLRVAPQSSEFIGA
Method: as §2, §3, §4

PDGFR [2] = assay: Receptor tyrosine kinase inhibition, PDGFR; format: cell-based
Method: as §2, with “The medium was replaced with 2 mL MCDB 105 (UCSF Cell Culture Facility) supplemented with 1% FBS.” left out, “Proteins were resolved by SDS-PAGE (Bio-Rad Miniprotean II) and transferred to nitrocellulose membrane (Schleicher & Schuell) at 120 volts for 1 hr at room temperature in buffer containing 25 mM Tris pH 8.3, 20% methanol, 0.2 M glycine, 0.1% SDS.” left out, “For C6 cells, PDGF-β receptor content in the lysates was confirmed in duplicate sample lanes by western blotting using an antibody specific for PDGF-β receptor (UBI).” left out
as §1, with “incubator.” for “incubator. Cells were then stimulated with ligand for 5-10 min followed by lysis with HNTG (20 mM Hepes, 150 mM NaCl, 10% glycerol, 5 mM EDTA, 5 mM Na3 VO4 0.2% Triton X-100, and 2 mM NaPyr).”
as §4

FLK-1 = target: T3, FLK-1 (Mus musculus, UniProt P35918); assay: Receptor tyrosine kinase inhibition, FLK-1; format: cell-based; settings: read-out: FLK-1 IC50
T3 construct: expressed in transfected cells; host or cells: NIH3T3 mouse fibroblasts, retroviral vector
T3 sequence (P35918 20-1345): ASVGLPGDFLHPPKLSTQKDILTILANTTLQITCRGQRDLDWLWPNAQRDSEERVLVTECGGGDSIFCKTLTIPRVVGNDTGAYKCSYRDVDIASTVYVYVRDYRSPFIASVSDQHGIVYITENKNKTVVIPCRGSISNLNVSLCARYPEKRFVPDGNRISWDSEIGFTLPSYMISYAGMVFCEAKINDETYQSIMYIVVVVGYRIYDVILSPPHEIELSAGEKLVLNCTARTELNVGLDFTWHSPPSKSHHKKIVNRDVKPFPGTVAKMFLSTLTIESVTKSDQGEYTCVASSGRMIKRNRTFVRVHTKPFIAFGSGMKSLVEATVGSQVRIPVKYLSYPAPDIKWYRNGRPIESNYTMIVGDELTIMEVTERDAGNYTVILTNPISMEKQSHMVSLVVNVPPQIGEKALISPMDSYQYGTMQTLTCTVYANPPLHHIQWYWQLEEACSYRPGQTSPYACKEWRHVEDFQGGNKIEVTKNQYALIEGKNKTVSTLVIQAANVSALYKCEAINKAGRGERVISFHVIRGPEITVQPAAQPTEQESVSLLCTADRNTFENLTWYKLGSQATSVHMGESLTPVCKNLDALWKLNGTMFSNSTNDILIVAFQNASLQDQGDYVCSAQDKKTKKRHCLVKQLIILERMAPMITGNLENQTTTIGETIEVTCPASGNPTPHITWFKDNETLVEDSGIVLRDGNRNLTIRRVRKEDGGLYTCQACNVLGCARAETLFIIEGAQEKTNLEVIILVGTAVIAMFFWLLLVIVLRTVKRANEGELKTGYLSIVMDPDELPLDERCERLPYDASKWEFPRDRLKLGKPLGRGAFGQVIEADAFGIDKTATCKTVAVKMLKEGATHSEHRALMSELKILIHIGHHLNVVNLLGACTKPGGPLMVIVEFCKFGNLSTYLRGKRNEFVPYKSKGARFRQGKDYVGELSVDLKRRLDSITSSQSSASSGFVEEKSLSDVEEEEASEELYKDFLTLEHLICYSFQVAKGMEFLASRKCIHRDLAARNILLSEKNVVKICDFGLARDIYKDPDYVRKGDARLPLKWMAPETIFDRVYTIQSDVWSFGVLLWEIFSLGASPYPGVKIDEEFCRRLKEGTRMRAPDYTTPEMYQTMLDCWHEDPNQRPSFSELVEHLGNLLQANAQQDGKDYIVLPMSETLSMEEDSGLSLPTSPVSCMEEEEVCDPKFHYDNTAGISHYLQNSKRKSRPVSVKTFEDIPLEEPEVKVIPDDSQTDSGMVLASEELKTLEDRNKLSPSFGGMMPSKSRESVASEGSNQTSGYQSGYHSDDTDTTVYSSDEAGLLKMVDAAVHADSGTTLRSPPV
Method: as §2, §3, §4

PDGFR [3] = target: T1, PDGFR; assay: Receptor tyrosine kinase inhibition, PDGFR; format: cell-based; set-up: U1242 (PDGF-β receptor); host or cells: U1242 glioma cells (ELISA)
Method: as §2, with “The medium was replaced with 2 mL MCDB 105 (UCSF Cell Culture Facility) supplemented with 1% FBS.” left out, “Proteins were resolved by SDS-PAGE (Bio-Rad Miniprotean II) and transferred to nitrocellulose membrane (Schleicher & Schuell) at 120 volts for 1 hr at room temperature in buffer containing 25 mM Tris pH 8.3, 20% methanol, 0.2 M glycine, 0.1% SDS.” left out, “For C6 cells, PDGF-β receptor content in the lysates was confirmed in duplicate sample lanes by western blotting using an antibody specific for PDGF-β receptor (UBI).” left out
as §1, with “incubator.” for “incubator. Cells were then stimulated with ligand for 5-10 min followed by lysis with HNTG (20 mM Hepes, 150 mM NaCl, 10% glycerol, 5 mM EDTA, 5 mM Na3 VO4 0.2% Triton X-100, and 2 mM NaPyr).”
as §4

C6 cells = assay: C6 SRB growth assay; format: cell-based, rat; settings: Rattus norvegicus, C6; read-out: C6 SRB IC50
PDGF-R (U1242) = target: T4, PDGF-R (U1242) (Homo sapiens, UniProt P09619); assay: U1242 kinase (PDGF-R activity); format: cell-based
T4 construct: U1242 (PDGF-β receptor); host or cells: U1242 MG glioma cells
T4 sequence (P09619 33-1106): as the sequence (P09619 33-1106) above
Method: as §2, with “The medium was replaced with 2 mL MCDB 105 (UCSF Cell Culture Facility) supplemented with 1% FBS.” left out, “Proteins were resolved by SDS-PAGE (Bio-Rad Miniprotean II) and transferred to nitrocellulose membrane (Schleicher & Schuell) at 120 volts for 1 hr at room temperature in buffer containing 25 mM Tris pH 8.3, 20% methanol, 0.2 M glycine, 0.1% SDS.” left out, “For C6 cells, PDGF-β receptor content in the lysates was confirmed in duplicate sample lanes by western blotting using an antibody specific for PDGF-β receptor (UBI).” left out
as §1, with “incubator.” for “incubator. Cells were then stimulated with ligand for 5-10 min followed by lysis with HNTG (20 mM Hepes, 150 mM NaCl, 10% glycerol, 5 mM EDTA, 5 mM Na3 VO4 0.2% Triton X-100, and 2 mM NaPyr).”
PDGF-R activity, C6 SRB, and in vivo efficacy were measured using the procedures described in the appendices above.

[4] = W = done in Western assay; read-out: PDGFR IC50 (W)
[5] = W = done in Western assay, read-out: U1242 KINASE IC50 (W)

Row | Compound | IC50 (PDGFR [1]) | IC50 (PDGFR [2]; [4]) | IC50 (HER2) | IC50 (FLK-1) | IC50 (EGFR) | also measured
1 | N#CC(=Cc1ccc(O)c(O)c1)c1c(C#N)c(N)nn1-c1ccccc1 [Compound C10] | 25 µM | 25 µM | – | – | – | HER2 phosphorylation (HER2): effects EGF-4, PDGF-R, and HER2 phosphorylation; EGF receptor phosphorylation (EGFR): effects EGF-4, PDGF-R, and HER2 phosphorylation; PDGF-R phosphorylation (PDGFR [2]): effects EGF-4, PDGF-R, and HER2 phosphorylation
2 | CC(C)(C)c1cc(C=C(C#N)c2[nH]nc(N)c2C#N)cc(C(C)(C)C)c1O [Compound C13] | – | – | 29 µM | 3.3 µM | 16 µM | IC50 (PDGFR [3]): 16 µM
3 | N#CC(=Cc1c[nH]c2ccccc12)C(N)=O [Compound D13] | 30 µM | 30 µM | – | > 50 µM | – | –
4 | CN(C)CCn1cc(C=C(C#N)c2[nH]nc(N)c2C#N)c2ccccc21 [Compound D18] | – | – | > 50 µM | > 50 µM | > 50 µM | IC50 (PDGFR [3]; read-out: PDGFR IC50): 34 µM
5 | N#CC(=Cc1c[nH]c2ccccc12)c1c(C#N)c(N)nn1-c1ccccc1 [Compound D20] | – | – | > 50 µM | > 50 µM | > 50 µM | IC50 (PDGFR [3]; read-out: PDGFR IC50): 14 µM
6 | CCOc1ccccc1NC(=O)C(=O)NN=Cc1ccc(O)c(O)c1 [Compound E14] | 100 µM | 10 µM | – | > 50 µM | – | –
7 | c1ccc(-c2cnc3ccccc3n2)cc1 [Compound G10] | 10 µM | 10 µM | – | > 50 µM | – | –
8 | COc1cc2cc(-c3ccccc3)c(Cl)nc2cc1OC [Compound G12] | 10 µM | 10 µM | – | > 50 µM | – | HER2 phosphorylation (HER2): do not effect EGF or HER2 phosphorylation; EGF receptor phosphorylation (EGFR): do not effect EGF or HER2 phosphorylation; PDGF-R phosphorylation (PDGFR [2]): inhibit PDGF-R phosphorylation
9 | O=[N+]([O-])c1ccc2ncc(-c3ccccc3)nc2c1 [Compound G23] | – | – | > 100 µM | 325 µM | > 100 µM | IC50 (PDGFR [2]; read-out: PDGFR IC50 (W); W = done in Western assay): 25 µM
10 | Cc1cc2ncc(-c3ccc([N+](=O)[O-])cc3)nc2cc1C [Compound G27, 2-(4-nitrophenyl) 6.7 dimethylquinoxaline] | – | – | > 50 µM | > 50 µM | > 100 µM | IC50 (PDGFR [3]; read-out: PDGFR IC50): 48 µM
11 | Cc1cc2ncc(Nc3cccc(Br)c3)nc2cc1C [Compound G28] | – | – | – | – | – | IC50 (C6 cells): 4.5 µM; IC50 (PDGF-R (U1242); scndry, read-out: U1242 KINASE IC50 (scndry)): 16.4 µM
12 | CC1c2nc3ccccc3c(=O)n2C(c2cccc(O)c2)N1Cc1ccccc1 (stereo not drawn) [Compound H12] | 30 µM | 25 µM | – | – | – | IC50 (C6 cells): 19 µM; IC50 (PDGF-R (U1242); [5]): > 250 µM and 25 µM
13 | N#CC(=Cc1cc(O)c(O)c(Br)c1)C(=O)NCCCNC(=O)C(C#N)=Cc1cc(O)c(O)c(Br)c1 [Compound P10] | – | 3 µM | > 100 µM | > 25 µM | 31 µM | IC50 (C6 cells): 12 µM; IC50 (PDGF-R (U1242); [5]): 3 µM
14 | O=C(Nc1cc(C(F)(F)F)cc(C(F)(F)F)c1)c1cccs1 [Compound P12] | – | 25 µM | > 50 µM | > 50 µM | – | –
15 | Cc1cc2ccccc2c[n+]1[O-] [Compound P13] | – | – | – | – | – | IC50 (C6 cells): > 100 µM; IC50 (PDGF-R (U1242); read-out: U1242 KINASE IC50): 1.2 µM
16 | COc1cccc(NC(=S)C(C#N)C(=O)N2CCCC2)c1 (stereo not drawn) [Compound P21, N-3-methoxyphenyl (2-cyano-2-N-pyrrolidinycarbonyl) thioacetamide] | – | – | – | – | – | IC50 (C6 cells): > 25 µM; IC50 (PDGF-R (U1242); read-out: U1242 KINASE IC50): 93 µM
17 | N#CC(=Cc1ccc(O)c(O)c1)C(=O)NCc1ccc(F)cc1 [Compound P25] | – | 30 µM | > 100 µM | > 500 µM | > 100 µM | –
